The record followed here is US10934285B2, “Compounds and compositions for inhibiting the activity of SHP2” (Novartis AG, priority 2016, dated 2021).

Molecules are shown by their SMILES.

This test concerns the target SHP2 (Homo sapiens (Human), UniProt Q06124). As to the kind of experiment: SHP2 Allosteric Inhibition Assay. Format: biochemical. To be noted: 0.5 nM SHP2 activated with 0.5 μM peptide IRS1_pY1172(dPEG8)pY1222; surrogate substrate DiFMUP; prompt fluorescence. From the text: SHP2 Allosteric Inhibition Assay
SHP2 is allosterically activated through binding of bis-tyrosyl-phorphorylated peptides to its Src Homology 2 (SH2) domains. The latter activation step leads to the release of the auto-inhibitory interface of SHP2, which in turn renders the SHP2 protein tyrosine phosphatase (PTP) active and available for substrate recognition and reaction catalysis. The catalytic activity of SHP2 was monitored using the surrogate substrate DiFMUP in a prompt fluorescence assay format.
After 30-60 minutes incubation at 25° C., the surrogate substrate DiFMUP (Invitrogen, cat #D6567) was added to the reaction and incubated at 25° C. for 30 minutes. […] The inhibitor dose response curves were analyzed using normalized IC50 regression curve fitting with control based normalization.

SHP2, sequence (Q06124 whole entry): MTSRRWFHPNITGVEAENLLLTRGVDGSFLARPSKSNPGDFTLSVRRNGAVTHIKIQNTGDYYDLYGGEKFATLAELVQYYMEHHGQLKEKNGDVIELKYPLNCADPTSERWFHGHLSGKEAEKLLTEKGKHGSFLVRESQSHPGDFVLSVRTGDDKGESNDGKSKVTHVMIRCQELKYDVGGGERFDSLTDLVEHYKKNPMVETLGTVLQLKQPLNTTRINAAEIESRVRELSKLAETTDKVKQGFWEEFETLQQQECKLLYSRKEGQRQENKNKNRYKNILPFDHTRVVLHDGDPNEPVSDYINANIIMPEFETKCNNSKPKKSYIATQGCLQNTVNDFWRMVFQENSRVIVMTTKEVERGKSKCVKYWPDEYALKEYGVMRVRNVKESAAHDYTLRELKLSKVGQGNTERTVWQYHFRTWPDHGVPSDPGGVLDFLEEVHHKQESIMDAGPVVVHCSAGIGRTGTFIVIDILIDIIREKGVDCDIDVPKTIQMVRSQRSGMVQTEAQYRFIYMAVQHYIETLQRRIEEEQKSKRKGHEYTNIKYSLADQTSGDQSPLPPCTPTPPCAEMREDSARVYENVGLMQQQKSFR

In turn, `CC1(N)CCN(c2cnc(Sc3cccc(NC(=O)c4c(O)nc5ccccn5c4=O)c3Cl)c(N)n2)CC1` [Example 1, N-(3-((3-Amino-5-(4-amino-4-methylpiperidin-1-yl)pyrazin-2-yl)thio)-2-chlorophenyl)-2-hydroxy-4-oxo-4H-pyrido[1,2-a]pyrimidine-3-carboxamide] had an IC50 of 6 nM.

`CC1(CN)CCN(c2cnc(Sc3cccc(NC(=O)c4c(O)nc5ccccn5c4=O)c3Cl)c(N)n2)CC1` [Example 2, N-(3-((3-amino-5-(4-(aminomethyl)-4-methylpiperidin-1-yl)pyrazin-2-yl)thio)-2-chlorophenyl)-2-hydroxy-4-oxo-4H-pyrido[1,2-a]pyrimidine-3-carboxamide] displayed an IC50 of 7 nM.

The compound `CC1(CN)CCN(c2cnc(Sc3cccc(NC(=O)c4c(O)nc5sccn5c4=O)c3Cl)c(N)n2)CC1` [Example 3, N-(3-((3-amino-5-(4-(aminomethyl)-4-methylpiperidin-1-yl)pyrazin-2-yl)thio)-2-chlorophenyl)-7-hydroxy-5-oxo-5H-thiazolo[3,2-a]pyrimidine-6-carboxamide] returned an IC50 of 6 nM.

As for `Cn1c(=O)c(C(=O)Nc2cccc(Sc3ncc(N4CCC(C)(CN)CC4)nc3N)c2Cl)c(O)c2c(C3CC3)csc21` [Example 4, N-(3-((3-amino-5-(4-(aminomethyl)-4-methylpiperidin-1-yl)pyrazin-2-yl)thio)-2-chlorophenyl)-3-cyclopropyl-4-hydroxy-7-methyl-6-oxo-6,7-dihydrothieno[2,3-b]pyridine-5-carboxamide], 1030 nM corresponded to half-maximal inhibition (IC50).

Compound `CC1(CN)CCN(c2cnc(Sc3cccc(NC(=O)c4c(O)nc5cnccn5c4=O)c3Cl)c(N)n2)CC1` [Example 5, N-(3-((3-amino-5-(4-(aminomethyl)-4-methylpiperidin-1-yl)pyrazin-2-yl)thio)-2-chlorophenyl)-2-hydroxy-4-oxo-4H-pyrazino[1,2-a]pyrimidine-3-carboxamide] registered a half-maximal inhibitory concentration (IC50) of 3 nM.

`CC1(CN)CCN(c2cnc(Sc3cccc(NC(=O)c4c(O)nc5[nH]ccn5c4=O)c3Cl)c(N)n2)CC1` [Example 6, N-(3-((3-amino-5-(4-(aminomethyl)-4-methylpiperidin-1-yl)pyrazin-2-yl)thio)-2-chloropheny1)-7-hydroxy-5-oxo-1,5-dihydroimidazo[1,2-a]pyrimidine-6-carboxamide] yielded an IC50 of 5 nM. This IC50 is about 1.7-fold higher than that of the compound before.

In turn, `CC1(CN)CCN(c2cnc(Sc3cccc(NC(=O)c4c(O)nc5n(c4=O)CCCC5)c3Cl)c(N)n2)CC1` [Example 7, N-(3-((3-amino-5-(4-(aminomethyl)-4-methylpiperidin-1-yl)pyrazin-2-yl)thio)-2-chlorophenyl)-2-hydroxy-4-oxo-6,7,8,9-tetrahydro-4H-pyrido[1,2-a]pyrimidine-3-carboxamide] displayed a half-maximal inhibitory concentration (IC50) of 6 nM.

`Cn1c(=O)c(C(=O)Nc2cccc(Sc3ncc(N4CCC(C)(CN)CC4)nc3N)c2Cl)c(O)c2ccccc21` [Example 8, N-(3-((3-amino-5-(4-(aminomethyl)-4-methylpiperidin-1-yl)pyrazin-2-yl)thio)-2-chlorophenyl)-4-hydroxy-1-methyl-2-oxo-1,2-dihydroquinoline-3-carboxamide] had an IC50 of 44 nM. This IC50 is about 7.3-fold higher than that of the compound before.

For `CC1(CN)CCN(c2cnc(Sc3cccc(NC(=O)c4c(O)nc5n(c4=O)CCNC5)c3Cl)c(N)n2)CC1` [Example 9, N-(3-((3-amino-5-(4-(aminomethyl)-4-methylpiperidin-1-yl)pyrazin-2-yl)thio)-2-chlorophenyl)-2-hydroxy-4-oxo-6,7,8,9-tetrahydro-4H-pyrazino[1,2-a]pyrimidine-3-carboxamide], the half-maximal inhibitory concentration (IC50) came to 7 nM.

With `NCC1(O)CCN(c2cnc(Sc3cccc(NC(=O)c4c(O)nc5ccccn5c4=O)c3Cl)c(N)n2)CC1` [Example 10, N-(3-((3-amino-5-(4-(aminomethyl)-4-hydroxypiperidin-1-yl)pyrazin-2-yl)thio)-2-chlorophenyl)-2-hydroxy-4-oxo-4H-pyrido[1,2-a]pyrimidine-3-carboxamide], the IC50 is 6 nM.

`NCC1(O)CCN(c2cnc(Sc3cccc(NC(=O)c4c(O)nc5n(c4=O)CCCC5)c3Cl)c(N)n2)CC1` [Example 11, N-(3-((3-amino-5-(4-(aminomethyl)-4-hydroxypiperidin-1-yl)pyrazin-2-yl)thio)-2-chlorophenyl)-2-hydroxy-4-oxo-6,7,8,9-tetrahydro-4H-pyrido[1,2-a]pyrimidine-3-carboxamide] gave an IC50 of 12 nM.

In the case of `N#CC1(CN)CCN(c2cnc(Sc3cccc(NC(=O)c4c(O)nc5n(c4=O)CCCC5)c3Cl)c(N)n2)CC1` [Example 12, N-(3-((3-amino-5-(4-(aminomethyl)-4-cyanopiperidin-1-yl)pyrazin-2-yl)thio)-2-chlorophenyl)-2-hydroxy-4-oxo-6,7,8,9-tetrahydro-4H-pyrido[1,2-a]pyrimidine-3-carboxamide], the IC50 amounted to 260 nM.

With `Nc1nc(N2CCC(N)(CF)CC2)cnc1Sc1cccc(NC(=O)c2c(O)nc3ccccn3c2=O)c1Cl` [Example 13, N-(3-((3-amino-5-(4-amino-4-(fluoromethyl)piperidin-1-yl)pyrazin-2-yl)thio)-2-chlorophenyl)-2-hydroxy-4-oxo-4H-pyrido[1,2-a]pyrimidine-3-carboxamide], inhibition was half-maximal at 4.6 nM (IC50).

Consider `Nc1nc(N2CCC(N)(CF)CC2)cnc1Sc1cccc(NC(=O)c2c(O)nc3n(c2=O)CCCC3)c1Cl` [Example 14, N-(3-((3-amino-5-(4-amino-4-(fluoromethyl)piperidin-1-yl)pyrazin-2-yl)thio)-2-chlorophenyl)-2-hydroxy-4-oxo-6,7,8,9-tetrahydro-4H-pyrido[1,2-a]pyrimidine-3-carboxamide], for which the half-maximal inhibitory concentration (IC50) came to 5.9 nM.

In turn, `NCC1(F)CCN(c2cnc(Sc3cccc(NC(=O)c4c(O)nc5ccccn5c4=O)c3Cl)c(N)n2)CC1` [Example 15, N-(3-((3-amino-5-(4-(aminomethyl)-4-fluoropiperidin-1-yl)pyrazin-2-yl)thio)-2-chlorophenyl)-2-hydroxy-4-oxo-4H-pyrido[1,2-a]pyrimidine-3-carboxamide] gave an IC50 of 10 nM. This IC50 lies about 1.7-fold higher than the previous one.

The compound `NCC1(F)CCN(c2cnc(Sc3cccc(NC(=O)c4c(O)nc5n(c4=O)CCCC5)c3Cl)c(N)n2)CC1` [Example 16, N-(3-((3-amino-5-(4-(aminomethyl)-4-fluoropiperidin-1-yl)pyrazin-2-yl)thio)-2-chlorophenyl)-2-hydroxy-4-oxo-6,7,8,9-tetrahydro-4H-pyrido[1,2-a]pyrimidine-3-carboxamide] gave a half-maximal inhibitory concentration (IC50) of 8 nM.

Take `NCC1CCN(c2cnc(Sc3cccc(NC(=O)c4c(O)nc5ccccn5c4=O)c3Cl)c(N)n2)C1` (stereo not drawn) [Example 17]: half-maximal inhibition (IC50) was put at 13 nM.

On to `Nc1nc(N2CCC(C(N)C(F)(F)F)C2)cnc1Sc1cccc(NC(=O)c2c(O)nc3ccccn3c2=O)c1Cl` (stereo not drawn) [Example 18, N-(3-((3-amino-5-(3-(1-amino-2,2,2-trifluoroethyl)pyrrolidin-1-yl)pyrazin-2-yl)thio)-2-chlorophenyl)-2-hydroxy-4-oxo-4H-pyrido[1,2-a]pyrimidine-3-carboxamide], for which inhibition was half-maximal at 789 nM (IC50).

`Nc1nc(N2CCC(N)(C(F)(F)F)CC2)cnc1Sc1cccc(NC(=O)c2c(O)nc3ccccn3c2=O)c1Cl` [Example 19, N-(3-((3-amino-5-(4-amino-4-(trifluoromethyl)piperidin-1-yl)pyrazin-2-yl)thio)-2-chlorophenyl)-2-hydroxy-4-oxo-4H-pyrido[1,2-a]pyrimidine-3-carboxamide] returned a concentration for half-maximal inhibition (IC50) of 2190 nM.

The compound `Nc1nc(N2CCC(N)(C(F)(F)F)CC2)cnc1Sc1cccc(NC(=O)c2c(O)nc3n(c2=O)CCCC3)c1Cl` [Example 20, N-(3-((3-amino-5-(4-amino-4-(trifluoromethyl)piperidin-1-yl)pyrazin-2-yl)thio)-2-chlorophenyl)-2-hydroxy-4-oxo-6,7,8,9-tetrahydro-4H-pyrido[1,2-a]pyrimidine-3-carboxamide] had a half-maximal inhibitory concentration (IC50) of 5000 nM.

`Nc1nc(N2CCC3(CC2)CCC(F)(F)[C@H]3N)cnc1Sc1cccc(NC(=O)c2c(O)nc3ccccn3c2=O)c1Cl` [Example 22, (S)-N-(3-((3-amino-5-(1-amino-2,2-difluoro-8-azaspiro[4.5]decan-8-yl)pyrazin-2-yl)thio)-2-chlorophenyl)-2-hydroxy-4-oxo-4H-pyrido[1,2-a]pyrimidine-3-carboxamide] displayed an IC50 of 10 nM.

Compound `Nc1nc(N2CCC3(CCC[C@H]3N)CC2)cnc1Sc1cccc(NC(=O)c2c(O)nc3ccccn3c2=O)c1Cl` [Example 23, (R)-N-(3-((3-amino-5-(1-amino-8-azaspiro[4.5]decan-8-yl)pyrazin-2-yl)thio)-2-chlorophenyl)-2-hydroxy-4-oxo-4H-pyrido[1,2-a]pyrimidine-3-carboxamide] gave an IC50 of 5 nM.

For `Nc1nc(N2CCC3(CCC[C@H]3N)CC2)cnc1Sc1cccc(NC(=O)c2c(O)nc3n(c2=O)CCCC3)c1Cl` [Example 24, (R)-N-(3-((3-amino-5-(1-amino-8-azaspiro[4.5]decan-8-yl)pyrazin-2-yl)thio)-2-chlorophenyl)-2-hydroxy-4-oxo-6,7,8,9-tetrahydro-4H-pyrido[1,2-a]pyrimidine-3-carboxamide], the IC50 was determined as 1 nM. Compared with the last compound, the IC50 is about 5-fold lower.

Compound `Cc1oc(=O)oc1COC(=O)NCC1(C)CCN(c2cnc(Sc3cccc(NC(=O)c4c(O)nc5ccccn5c4=O)c3Cl)c(N)n2)CC1` [Example 25, (5-Methyl-2-oxo-1,3-dioxol-4-yl)methyl ((1-(6-amino-5-((2-chloro-3-(2-hydroxy-4-oxo-4H-pyrido[1,2-a]pyrimidine-3-carboxamido)phenyl)thio)pyrazin-2-yl)-4-methylpiperidin-4-yl)methyl)carbamate] gave an IC50 of 80 nM.
